Data taken from paper PMC7727793, “Aggregation Behavior, Antibacterial Activity and Biocompatibility of Catanionic Assemblies Based on Amino Acid-Derived Surfactants” (International Journal of Molecular Sciences, 2020).

Experiments:
[1] = test system: A431 cell line; experiment: MTT cell viability assay; assay type: cell-based
Description: (§1) The murine Swiss albino fibroblast (3T3), the squamous carcinoma (A431), the immortal human keratinocyte (HaCaT) and the human epithelial carcinoma (HeLa) cell lines were obtained from Celltec UB. Cells were grown in Dulbecco’s Modified Eagle’s Medium (DMEM) (4.5 g/L glucose) supplemented with 10% (v/v) fetal bovine serum (FBS), 1% (v/v) L-glutamine solution (200 mM) and 1% (v/v) penicillin-streptomycin solution (10,000 U/mL penicillin and 10 mg/mL streptomycin) at 37 °C and 5% CO2 (CO2 Incubator Nuaire, Plymouth, MN, USA). All the biological materials were purchased from Lonza (Verviers, Belgium). Cells were cultured in 75 cm^2 culture flasks (TPP, Trasadingen, Switzerland) and were routinely split using trypsin-EDTA (ethylenediaminetetraacetate) solution (170,000 U/L trypsin and 0.2 g/L EDTA) (Lonza, Verviers, Belgium) when cells are approximately 80% confluent. […]
(§2) In this assay, living cells reduce the yellow tetrazolium salt, 2,5-Diphenyl-3, -(4,5-dimethyl-2-thiazolyl) tetrazolium bromide (MTT), to insoluble purple formazan crystals. […] Then, the absorbance of the resulting solutions was measured at 550 nm using a Bio-Rad 550 microplate reader (Hercules, California, USA). The effect of each treatment was calculated as the percentage of tetrazolium salt reduction by viable cells against the untreated cell control (cells with medium only).

[2] = test system: 3T3 cell line; experiment: MTT cell viability assay; assay type: cell-based, murine; details: 3T3, MTT, 24 h
Description: as §1, §2

[3] = test system: all microorganisms tested; experiment: Broth microdilution MIC, statement for all microorganisms tested; assay type: cell-based; details: for Antibacterial activity (in words): tested microorganisms
Description: Antibacterial assays were conducted in vitro using the broth microdilution method. The minimum inhibitory concentration (MIC) is the smallest concentration of antibacterial agent at which bacterial growth is not observed. MIC values were determined for 4 Gram-positive bacteria (methicillin-resistant Staphylococcus aureus ATCC 43300 (MRSA), Bacillus subtilis ATCC 6633, Kocuria rhizophila 9341, Staphylococcus epidermidis ATCC 12228), 3 Gram-negative bacteria (Klebsiella pneumoniae ATCC 4532, Pseudomonas aeruginosa ATCC 27853, Escherichia coli ATCC 8739) and the fungal strain, Candida albicans ATCC 10231. Frozen stocks of bacteria were incubated on Muller Hinton agar plates for 24 h at 37 °C. From this culture, a bacterial suspension of 1 × 10^6 colony forming units CFU/mL was prepared in MHB (pH = 7.3). Two dilutions of pure surfactants and their binary mixtures were prepared in MH broth to obtain a final concentration ranging from 4 to 454 μM in the microtiter plates.
Then, 10 μL of nutrient broth culture of each microorganism was added to achieve a final density of ca. 5 × 10^5 CFU/mL. The cultures were incubated for 24 h at 37 °C. Every assay was repeated three times.

[4] = test system: HaCaT cell line; experiment: NRU cell viability assay; assay type: cell-based, human; details: 24 h
Description: The murine Swiss albino fibroblast (3T3), the squamous carcinoma (A431), the immortal human keratinocyte (HaCaT) and the human epithelial carcinoma (HeLa) cell lines were obtained from Celltec UB. Cells were grown in Dulbecco’s Modified Eagle’s Medium (DMEM) (4.5 g/L glucose) supplemented with 10% (v/v) fetal bovine serum (FBS), 1% (v/v) L-glutamine solution (200 mM) and 1% (v/v) penicillin-streptomycin solution (10,000 U/mL penicillin and 10 mg/mL streptomycin) at 37 °C and 5% CO2 (CO2 Incubator Nuaire, Plymouth, MN, USA). All the biological materials were purchased from Lonza (Verviers, Belgium). Cells were cultured in 75 cm^2 culture flasks (TPP, Trasadingen, Switzerland) and were routinely split using trypsin-EDTA (ethylenediaminetetraacetate) solution (170,000 U/L trypsin and 0.2 g/L EDTA) (Lonza, Verviers, Belgium) when cells are approximately 80% confluent. 3T3 and HaCaT cells (1 × 10^5 cells/ mL) and HeLa and A431 cells (5 × 10^4 cells/mL) were grown at the defined densities into the central 60 wells of a 96-well plate. Cells were incubated for 24 h under 5% CO2 at 37 °C. […] Agitation, determination of the absorbance of the extracted solution and effect of each treatment in comparison with control cells were analogous of those described in the case of the MTT method.

[5] = test system: HeLa cell line; experiment: MTT cell viability assay; assay type: cell-based, human; details: 24 h
Description: (§3) The murine Swiss albino fibroblast (3T3), the squamous carcinoma (A431), the immortal human keratinocyte (HaCaT) and the human epithelial carcinoma (HeLa) cell lines were obtained from Celltec UB. Cells were grown in Dulbecco’s Modified Eagle’s Medium (DMEM) (4.5 g/L glucose) supplemented with 10% (v/v) fetal bovine serum (FBS), 1% (v/v) L-glutamine solution (200 mM) and 1% (v/v) penicillin-streptomycin solution (10,000 U/mL penicillin and 10 mg/mL streptomycin) at 37 °C and 5% CO2 (CO2 Incubator Nuaire, Plymouth, MN, USA). All the biological materials were purchased from Lonza (Verviers, Belgium). Cells were cultured in 75 cm^2 culture flasks (TPP, Trasadingen, Switzerland) and were routinely split using trypsin-EDTA (ethylenediaminetetraacetate) solution (170,000 U/L trypsin and 0.2 g/L EDTA) (Lonza, Verviers, Belgium) when cells are approximately 80% confluent.
(§4) 3T3 and HaCaT cells (1 × 10^5 cells/ mL) and HeLa and A431 cells (5 × 10^4 cells/mL) were grown at the defined densities into the central 60 wells of a 96-well plate. Cells were incubated for 24 h under 5% CO2 at 37 °C. Then, the spent medium was removed, and cells were incubated during 24 h with the corresponding surfactant systems, previously diluted 50% (v/v) in DMEM medium supplemented with 5% FBS (100 µL).
(§5) In this assay, living cells reduce the yellow tetrazolium salt, 2,5-Diphenyl-3, -(4,5-dimethyl-2-thiazolyl) tetrazolium bromide (MTT), to insoluble purple formazan crystals. After the cells were incubated for 24 h with the corresponding systems, the medium was removed and 100 µL (5 mg/mL) of 2,5-Diphenyl-3,-(4,5-dimethyl-2-thiazolyl) tetrazolium bromide (MTT) (Sigma–Aldrich, St. Louis, MO, USA) in phosphate-buffered saline (PBS) (Lonza, Verviers, Belgium), diluted 1:10 in culture medium without phenol red and absence of FBS (Lonza, Verviers, Belgium), was added to the cells. The plates were incubated for 3 h, after which the medium was removed. Thereafter, 100 µL of dimethylsulfoxide (DMSO) (Sigma–Aldrich, St. Louis, MO, USA) was added to each well to dissolve the purple formazan crystals. Plates were then placed in a microtiter-plate shaker for 5 min at room temperature to help the total dissolution. Then, the absorbance of the resulting solutions was measured at 550 nm using a Bio-Rad 550 microplate reader (Hercules, California, USA). The effect of each treatment was calculated as the percentage of tetrazolium salt reduction by viable cells against the untreated cell control (cells with medium only).

[6] = test system: HaCaT cell line; experiment: MTT cell viability assay; assay type: cell-based, human; details: 24 h
Description: as §3, §4, §5

| Compound | IC50 ([1]; Homo sapiens, A-431, 24 h) [µM] | IC50 ([2]; Mus musculus, NIH3T3) [µM] | MIC ([3]; read-out: MIC for all microorganisms tested) [µM] | Antibacterial activity (in words) [3] | IC50 ([4]; Homo sapiens) [µM] | IC50 ([5]; Homo sapiens) [µM] | IC50 ([6]; Homo sapiens) [µM] | IC50 ([1]; 24 h) [µM] | IC50 [2] [µM] | IC50 [4] [µM] | IC50 [5] [µM] | IC50 [6] [µM] |
| --- | --- | --- | --- | --- | --- | --- | --- | --- | --- | --- | --- | --- |
| CCCCCCCCCCCCCC(=O)O [Sodium myristate, sodium myristate] | > 50 | > 50 | > 113 | did not show activity | > 50 | > 50 | > 50 |  |  |  |  |  |
| N(π),N(τ)-bis(methyl)-L-Histidine tetradecyl amide [DMHNHC14] |  |  |  | broad spectrum of antibacterial activity |  |  |  | 22.6 | 17.1 | 45.7 | 3.37 | 25.5 |
